Test results taken from paper PMC12340639 (ACS Pharmacology & Translational Science, 2025).
pEC50: −log10 of the molar value.

Tested on: ER-positive MCF7 human breast cancer cells
Experiment: MCF7 cell proliferation assay
Assay type: cell-based
Conditions: MCF7, 120 h, read-out: Cell Proliferation EC50

A pEC50 of 11.49 was found for `C[C@]12CC[C@@H]3c4ccc(O)cc4CC[C@H]3[C@@H]1CC[C@@H]2O` [E2, 17β-estradiol] in this work.
